Results as given in patent US10568931B2, “Pharmaceutical composition comprising ginseng extracts for prevention and treatment of ophthalmological diseases” (GINTONIN KU BIOTECH Co., Ltd., priority 2017, dated 2020).

How the values were obtained:
[1] = tested on: intracytoplasmic calcium in HCE-T cells; assay: Fura 2 fluorescence measurement of [Ca^2+]i in HCE-T cell suspension; format: cell-based, human; settings: LPA1/3 receptor antagonist
Description: Particularly, according to a method such as Jrgensen and the like, HCE-T cells (1 to 2×10^6 cell/ml) were mixed in […] Fura 2-AM while being shaken for 30 minutes at a 37° C. incubator by using a Ca^2+-containing buffer (pH 7.4) consisting of NaCl 120 mM, KCl 5 mM, MgCl2 1 mM, CaCl2 1.5 mM, glucose 10 mM, and HEPES 25 mM and a Ca^2+-free buffer (pH 7.4) consisting of NaCl 120 mM, KCl 5 mM, MgCl2 1 mM, EGTA 0.2 mM, glucose 10 mM, and HEPES 25 mM, and an excessive amount of fura-2 was removed by washing the cells with the Ca^2+ buffer or the Ca^2+-free buffer three times.
[Ca^2+]i was estimated in the Fura 2-loaded cells by using a RF-5300PC intracellular ion measurement system (Shimadzu Corporation, Japan). […] Excitation wavelengths were alternated between 340 and […] under a computer control and emission was detected at 510. […]
A measured ratio value of 340:380 was converted to a value of [Ca^2+]i by using Equation of Hounsell and the like (Hounsell, E. F., Davies, M. J., and Smith, K. D. (1997) Protein protocol handbook, Humanna press, Totawa, 803-804). […] Further, Sf380 and Sb380 are fluorescence intensity at 380 nm when adding digitonin and EGTA and the ratios are maximum and minimum values when these values are indicated (Grynkiewicz, G., M. Poenie, and R. Y. Tsien. (1985) J Biol Chem 260: 3440-3450).

[2] = tested on: human corneal epithelial-T (HCE-T) cells; assay: Scratch wound healing / cell migration in HCE-T cells; format: cell-based; settings: Ki16425 treated before gintonin
Description: HCE-T cells (RCB-2280) were purchased from a Riken cell bank. The HCE-T cells were cultured in a medium in which 10% FCS was contained in a DMEM-Ham F12 (1:1) medium (Araki-sasaki et al., Investigative Ophthalmology and Visual Science 36, 614-621, 1995; Arakisasaki et al., J cellular Physiol. 182, 189-195, 2000).
HCE-T (2.5×10^5/well) was planted in a 24-well plate and cultured for 24 hrs and then cultured for 6 hrs in a 0.2% FBS-containing DMEM medium again. The wound was made by drawing a line through the center of each well where cells grew by using a […] pipette tip and then the floating cells were washed twice with a 1% FBS-containing DMEM medium to be removed.
The cells were treated with 0.03 to 1 μg/ml of gintonin and cultured and compared with cells without treating gintonin by observing and photographing (100×) cell shapes before and after gintonin treatment of each well with an inverted fluorescence microscope (AxioVert200; Carl Zeiss).
For the analysis of the degree of cell growth in a part wounded with the pipette tip, an area of the wound part where cells were not recovered was measured using AxioVision.

In the case of `Cc1noc(-c2ccc(CSCCC(=O)O)cc2)c1NC(=O)OC(C)c1ccccc1Cl` (centres unmarked) [Ki16425], the “Effect of antagonist on increase in intracytoplasmic calcium by gintonin” value [1] is reported as “blocked” and the “Effect of antagonist pretreatment on gintonin-promoted cell migration” value [2] is reported as “the action of the gintonin is inhibited”.
